What is called IC50 is the midpoint of a concentration-inhibition curve.

For assay [1], the target named is T1, ALK2 R206H (GST-tagged mutant ALK2) (Homo sapiens, UniProt Q04771, R206H).
T1 construct: purchased Carna Bioscience or ThermoFisher 09-148 or PV6232
T1 sequence (Q04771 21-509 R206H): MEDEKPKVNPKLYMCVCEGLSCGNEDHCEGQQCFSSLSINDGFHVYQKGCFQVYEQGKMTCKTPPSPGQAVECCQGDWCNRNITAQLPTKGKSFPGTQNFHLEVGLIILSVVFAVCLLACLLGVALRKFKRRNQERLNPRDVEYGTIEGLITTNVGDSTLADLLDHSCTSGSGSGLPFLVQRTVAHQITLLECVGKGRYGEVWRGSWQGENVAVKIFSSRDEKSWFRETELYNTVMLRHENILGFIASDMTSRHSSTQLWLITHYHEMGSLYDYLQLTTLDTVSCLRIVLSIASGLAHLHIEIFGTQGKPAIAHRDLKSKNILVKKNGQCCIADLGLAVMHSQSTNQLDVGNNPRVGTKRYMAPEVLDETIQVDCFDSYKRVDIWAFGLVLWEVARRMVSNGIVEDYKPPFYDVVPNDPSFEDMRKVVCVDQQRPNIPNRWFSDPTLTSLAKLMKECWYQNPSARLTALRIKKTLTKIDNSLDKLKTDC
The assay can be described thus: ALK binding assay (LANTHASCREEN TR-FRET competitive binding, displacement of Kinase Tracer 178). Conditions: ALK2 R206H, LANTHASCREEN TR-FRET competitive binding; read-out: Binding Assay (IC50). As for the experimental part:
Binding assays were conducted using the LANTHASCREEN® technology (ThermoFisher Scientific). LANTHASCREEN® is a competitive binding, displacement assay where the assumed steady state occupancy of the binding site is measured using a time-resolved, fluorescence energy transfer (TR-FRET) readout between a fluorescent tracer and Europium (Eu)-tagged antibody specific for the kinase or expression tag (e.g. GST) of interest. Displacement of the tracer by a compound of the disclosure reduces, and is directly proportional to, the TR-FRET between the tracer and the antibody. Tracer was used at a concentration equal to or near to its Kd for the kinase.
In all cases, the kinase (2-5 nM) was mixed with Eu-tagged antibody (10 nM) mix and tracer (50 nM) were incubated with test compound titrations prepared in 100% DMSO (1% DMSO final) for 30 minutes at room temperature. All reagents and compounds were dissolved in Kinase Buffer A (ThermoFisher) to achieve the final concentration. […] This readout was normalized to 0% and 100% inhibited control wells, plotted against inhibitor concentration, and fitted to a 4-parameter log dose response curve.
(§1) Blank values in the table indicate that the particular compound was not tested in this assay.
Background: Time-resolved FRET reads energy transfer from a long-lived donor to a nearby acceptor.

Assay [2] concerns the target T2, human ALK2 R206H (Homo sapiens, UniProt Q04771, R206H).
T2 construct: expressed in transfected cells; host or cells: HEK293 (ATCC CRL1573), lentivirus transduction, blasticidin selection
T2 sequence (Q04771 21-509 R206H): T1 sequence (Q04771 21-509 R206H)
Description: Cell-based ALK2-R206H cell activity assay (Smad1-Ser463/Ser465 phosphorylation by AlphaLISA in HEK293-ALK2-R206H cells). Conditions: read-out: Cell Line (Cell Assay IC50). On the procedure: A HEK293 (ATCC, Cat^# CRL1573) based stable cell line expressing human ALK2 R206H cDNA (synthesized by GeneScript, Piscataway, N.J.) and a FLAG tag at the C-terminus was generated by lentivirus transduction and subsequent blasticidin (Life Technologies, Cat^#-A1113902) selection at 10 μg/ml for >2 wks. This cell line was named HEK293-ALK2-R206H.
Test compounds were first diluted to 4 mM or 0.4 mM and then serially diluted 3-fold into 10 different concentrations using DMSO. […] Two μl of the diluted compounds were then dispensed into the HEK293-ALK2-R206H cell-containing wells of the microplates in duplicates. In this way, each compound was tested in 10 doses (3-fold serial dilution with the top concentration being 10 μM or 1 μM). Liquid handling was achieved using a Bravo Automated Liquid Handling Platform (Agilent Technologies). DMSO without compound was used as a negative control. The positive control was 1 μM LDN193189, a known bone morphogenetic protein (BMP inhibitor).
The 10-point dose response curve was used to calculate the IC50 values.
as §1
(Alpha assays give light when donor and acceptor beads are brought close together.)

Each structure is given as a SMILES string.

Regarding `C[C@@H]1CN(c2ccnn3cc(-c4ccc(N5CCNCC5)cc4)cc23)CCN1C(=O)CCC#N` [Compound 199], the IC50 in assay [1] is below 10 nM; in assay [2], below 100 nM.

As to `CC(C)N1CCC(c2ccc(-c3cc4c(N5CCN(C(=O)OC6COC6)CC5)ccnn4c3)cc2)CC1` [Compound 629], the IC50 is below 10 nM in assay [1] and below 100 nM in assay [2].

`COC1(c2ccc(-c3cc4c(N5CCN(C(=O)C6CC6)CC5)ccnn4c3)cc2)CN(C(C)C)C1` [Compound 521]: the IC50 in assay [1] is below 10 nM; in assay [2], below 100 nM. The like results for `N[C@@H](CO)c1ccc(-c2cc3c(N4CCN(C(=O)C5CC5)CC4)ccnn3c2)cc1` [Compound 753] were, in that order, below 10 nM and below 100 nM. The like results for `CO[C@]1(c2ccc(-c3cc4c(N5CCN(C(=O)NC(C)C)CC5)ccnn4c3)cc2)CCCNC1` [Compound 542] were, in that order, below 10 nM and below 100 nM. On the same counts, the results for `O=C(C1CC1)N1CCN(c2ccnn3cc(-c4ccc(N5CCNCC5)cc4)cc23)CC1` [Compound 127, cyclopropyl(4-(6-(4-(piperazin-1-yl)phenyl)pyrrolo[1,2-b]pyridazin-4-yl)piperazin-1-yl)methanone] are below 10 nM and below 100 nM. As to `CCOC(=O)N1CCN(c2ccnn3cc(-c4ccc([C@]5(C)CN(C(C)C)CCN5)cc4)cc23)CC1` [Compound 598], the figures for the IC50 in assay [1] and in assay [2] were below 10 nM and below 100 nM, respectively.

`CCN1CC(Oc2ccc(-c3cc4c(N5CCN(C(=O)C6CC6)CC5)ccnn4c3)cc2)C1` [Compound 167]: the results for the IC50 in assay [1] and in assay [2] were below 10 nM and below 100 nM, respectively. On to `CC(C)NC(=O)N1CCN(c2ccnn3cc(-c4ccc(C5CCN(C(C)C)CC5)cc4F)cc23)CC1` [Compound 649], for which the IC50 in assay [1] was below 10 nM; in assay [2], below 100 nM.

Turning to `CC(C)N1CCC[C@@](F)(c2ccc(-c3cc4c(N5CCN(C(=O)OC6COC6)CC5)ccnn4c3)nc2)C1` [Compound 695], the results for the IC50 in assay [1] and in assay [2] were below 10 nM and below 100 nM, respectively. The like results for `CCOC(=O)N1CCN(c2ccnn3cc(-c4ccc([C@@H](N)CO)cc4)cc23)CC1` [Compound 754] were, in that order, below 10 nM and below 100 nM.

Turning to `CCN1CCN(c2ccc(-c3cc4c(N5CCN(C(=O)[C@H]6C[C@H]6C#N)CC5)ccnn4c3)cc2)CC1` [Compound 301], the IC50 is below 10 nM in assay [1] and 100 to 500 nM in assay [2].

For `O=C(C1CC1)N1CCN(c2ccnn3cc(-c4ccc(C5(O)CCOCC5)cc4)cc23)CC1` [Compound 172], the IC50 in assay [1] was below 10 nM; in assay [2], 100 to 500 nM. As to `CCOC(=O)N1CCN(c2ccnn3cc(-c4ccc([C@@H]5CCCN(C(C)C)C5)cn4)cc23)CC1` [Compound 544], the IC50 in assay [1] was below 10 nM; in assay [2], below 100 nM.

Take `CCNC(=O)N1CCN(c2ccnn3cc(-c4ccc([C@]5(OC)CCCN(C(C)C)C5)cn4)cc23)CC1` [Compound 645]: the IC50 is below 10 nM in assay [1] and below 100 nM in assay [2]. With `COC1(c2ccc(-c3cc4c(N5CCN(C(=O)[C@H]6C[C@H](C#N)C6)CC5)ccnn4c3)cc2)CCN([C@H](C)CO)CC1` [Compound 739], the IC50 in assay [1] was below 10 nM; in assay [2] it was below 100 nM. Turning to `O=C(C1CC1)N1CCN(c2ccnn3cc(-c4ccc(C5=NCCN5)cc4)cc23)CC1` [Compound 111, cyclopropyl(4-(6-(4-(4,5-dihydro-1H-imidazol-2-yl)phenyl)pyrrolo[1,2-b]pyridazin-4-yl)piperazin-1-yl)methanone], the figures for the IC50 in assay [1] and in assay [2] were below 10 nM and 100 to 500 nM, respectively.

For the compound `O=C(C1CC1)N1CCN(c2ccnn3cc(-c4ccc(OC5CCCNC5)cc4)cc23)CC1` (centres unmarked) [Compound 159], the results for the IC50 in assay [1] and in assay [2] were below 10 nM and below 100 nM, respectively. The like results for `CCOC1(c2ccc(-c3cc4c(N5CCN(C(=O)C6CC6)CC5)ccnn4c3)cc2)CCNCC1` [Compound 524] were, in that order, below 10 nM and below 100 nM.

For `CC(C)N1CCC(c2ccc(-c3cc4c(N5CCN(C(=O)OC6CC(C#N)C6)CC5)ccnn4c3)cc2)CC1` (centres unmarked) [Compound 704], the IC50 in assay [1] was below 10 nM; in assay [2] it was below 100 nM. `CCNC(=O)N1CCN(c2ccnn3cc(-c4ccc(C5CCN(C(C)C)CC5)cc4)cc23)CC1` [Compound 275, N-ethyl-4-(6-(4-(1-isopropylpiperidin-4-yl)phenyl)pyrrolo[1,2-b]pyridazin-4-yl)piperazine-1-carboxamide]: the IC50 in assay [1] is below 10 nM; in assay [2], below 100 nM. On the same counts, the results for `CO[C@@]1(c2ccc(-c3cc4c(N5CCN(C(=O)OC6COC6)CC5)ccnn4c3)nc2)CCCN(C(C)C)C1` [Compound 718] are below 10 nM and below 100 nM. On the same counts, the results for `CCO[C@@]1(c2ccc(-c3cc4c(N5CCN(C(=O)C6CC6)CC5)ccnn4c3)cc2)CCCN(C(C)C)C1` [Compound 656] are below 10 nM and below 100 nM. For `CC(C)N1CCC(c2ccc(-c3cc4c(N5CCN(C(=O)C6CC6)CC5)ccnn4c3)cc2)C1` (centres unmarked) [Compound 201], the values for the IC50 in assay [1] and in assay [2] were below 10 nM and below 100 nM, respectively. `CCO[C@]1(c2ccc(-c3cc4c(N5CCN(C(=O)C6CC6)CC5)ccnn4c3)cc2)CCCN(C(C)C)C1` [Compound 657]: the IC50 in assay [1] was below 10 nM; in assay [2], below 100 nM. For the compound `O=C(C1CC1)N1CCN(c2ccnn3cc(-c4ccc(N5CCN(CCO)CC5)cc4)cc23)CC1` [Compound 274, cyclopropyl(4-(6-(4-(4-(2-hydroxyethyl)piperazin-1-yl)phenyl)pyrrolo[1,2-b]pyridazin-4-yl)piperazin-1-yl)methanone], the IC50 is below 10 nM in assay [1] and 100 to 500 nM in assay [2]. `COCC(N)c1ccc(-c2cc3c(N4CCN(C(=O)C5CC5)CC4)ccnn3c2)cc1` (centres unmarked) [Compound 758]: in assay [1], the IC50 was below 10 nM. Consider `CCOC1(c2ccc(-c3cc4c(N5CCN(C(=O)O[C@@H](C)CF)CC5)ccnn4c3)nc2)CCN(C(C)C)CC1` [Compound 866], for which the IC50 in assay [1] was below 10 nM.

Turning to `O=C(C1CC1)N1CCN(c2ccnn3cc(-c4ccn(C5CCNC5)n4)cc23)CC1` (centres unmarked) [Compound 105], the IC50 in assay [1] is 10 to 50 nM.

With `O=C(C1CC1)N1CCN(c2ccnn3cc(-c4ccc(C5=CCNCC5)cc4)cc23)CC1` [Compound 458], the IC50 in assay [1] is below 10 nM.

As to `CC(c1ccc(-c2cc3c(N4CCN(C(=O)C5CC5)CC4)ccnn3c2)cc1)N1CCCC1` (centres unmarked) [Compound 471], in assay [1], the IC50 is above 50 nM. For the compound `CC(C)N1CCN(c2cnc(-c3cc4c(N5CCN(C(=O)C6CC6)CC5)ccnn4c3)cn2)CC1` [Compound 529], in assay [1], the IC50 is below 10 nM. As to `CCN1CCC1COc1ccc(-c2cc3c(N4CCN(C(=O)C5CC5)CC4)ccnn3c2)cc1` (centres unmarked) [Compound 218], the IC50 in assay [1] lay within 10 to 50 nM. For `CCN1CCN(c2ccc(-c3cc4c(N5CCN(C(=O)N6CC(COC)C6)CC5)ccnn4c3)cc2)CC1` [Compound 425], the IC50 in assay [1] was above 50 nM. Same read-out and setting: the same measure for `CCN1CCC(c2ccc(-c3cc4c(N5CCN(C(=O)C6CC(O)(c7ccccc7)C6)CC5)ccnn4c3)cc2)CC1` (centres unmarked) [Compound 446]: below 10 nM; for `CC(C)N1CCC(c2ccc(-c3cc4c(N5CCN(C(=O)C6CC(C#N)C6)CC5)ccnn4c3)cc2)CC1` (centres unmarked) [Compound 405]: below 10 nM; for `CCN(C)C(=O)N1CCN(c2ccnn3cc(-c4ccc(C5CCN(C(C)C)CC5)cc4)cc23)CC1` [Compound 342]: 10 to 50 nM. For `CC(C)NC(=O)N1CCN(c2ccnn3cc(-c4ccc(C5CCN(C(C)C)CC5)cc4Cl)cc23)CC1` [Compound 700], the IC50 in assay [1] is below 10 nM. Still for that read-out and setting: for `N#C[C@H]1CC[C@H](C(=O)N2CCN(c3ccnn4cc(-c5ccc(C6CNCC6F)cc5)cc34)CC2)CC1` (some centres unmarked) [Compound 378] the value was below 10 nM.

Values taken from patent US10233186B2, “Inhibitors of activin receptor-like kinase” (BLUEPRINT MEDICINES CORPORATION, priority 2016, dated 2019).
